Measurements published in patent publication US8093253B2, “Leukotriene B4 inhibitors” (Hoffmann-La Roche Inc., priority 2008, dated 2012).

tested on: not given; experiment: not given; settings: not given

melting point [°C] | SMILES
134 to 135 | CCS(=O)(=O)c1cc(OCCCCCCc2cccc(OCCCC(=O)O)c2CCC(=O)O)cc(-c2ccc3c(c2)OCO3)c1 [Example 47, 4-[3-[6-(3-Benzo[1,3]dioxol-5-yl-5-ethanesulfonyl-phenoxy)-hexyl]-2-(2-carboxy-ethyl)-phenoxy]-butyric Acid]

tested on: BLT1 and BLT2 receptors (HL-60 cells); experiment: Ca2+ flux assay for LTB4 antagonist assay (HL-60 FLIPR); format: cell-based, Human; settings: Retinoic acid induced HL-60 cells, inhibition of LTB4-induced Ca2+ flux, 30 min preincubation; read-out: LTB4 antagonism (HL-60 FLIPR) IC50
Description: Ca^2+ Flux Assay for LTB4 Antagonist Assay
Human leukemia HL-60 cells endogenously expressing BLT1 and BLT2 receptors were cultured in RPMI-1640 medium supplemented with 20% fetal bovine serum, 2 mM glutamine, 100 U/mL penicillin and 100 ug/mL streptomycin.
Seventy two hours prior to experiment cells are counted using ViaCount reagent, centrifuged and resuspended at 2.0×10^5 cells/mL density with the complete growth media containing 1 μM Retinoic Acid (Sigma).
On a day of the experiment loading buffer (Calcium-3 Assay Kit, Molecular Devices) was prepared by dissolving the contents of one vial (Express Kit) into 500 mL Hank's Balanced Salt Solution containing 20 mM HEPES and 5 mM probenecid. Equal volume of the loading buffer was mixed with the replacement buffer (Hank's Balanced Salt Solution containing 20 mM HEPES, 0.05% BSA and 5 mM probenecid). Retinoic Acid induced HL-60 cells were counted using ViaCount reagent, centrifuged and resuspended at 2.0×10^6 cells/mL density with the loading buffer/replacement buffer, dispensed into 384 well black/clear microplates (Falcon)(25 μL/well) and placed in a 37° C./5% CO2 incubator for 1 hour.
During the incubation, test compounds were prepared at 6× the desired concentration in HBSS/20 mM HEPES/0.05% BSA as well as LTB4 (Biomol) was prepared at 2.2× concentration in HBSS/20 mM HEPES/0.5% BSA buffer.
After the incubation, both the cell and compound plates were brought to the FLIPR and 5 μL of the diluted compounds were transferred to the cell plates by the FLIPR. Plates were then incubated for 30 min at room temperature. After the ½ hour incubation, plates were returned to the FLIPR and 25 μL of 2.2×LTB4 was added to the cell plates. During the assay, fluorescence readings were taken simultaneously from all 384 wells of the cell plate every 1.5 seconds. Five readings were taken to establish a stable baseline, then 25 μL (LTB4) of sample was rapidly and simultaneously added to each well of the cell plate. The fluorescence was continuously monitored before, during and after sample addition for a total elapsed time of 100 seconds. Responses (increase in peak fluorescence) in each well following agonist addition was determined. The initial fluorescence reading from each well, prior to ligand stimulation, was used a zero baseline value for the data from that well. The responses are expressed as % inhibition of the neutral control (neural control: wells that received buffer plus DMSO but no test compound).

SMILES | IC50 [nM]
CS(=O)(=O)c1cc(OCCCCCCc2cccc(OCCCC(=O)O)c2CCC(=O)O)cc(-c2ccc(O)cc2)c1 [Example 5, 4-{2-(2-Carboxy-ethyl)-3-[6-(4′-hydroxy-5-methanesulfonyl-biphenyl-3-yloxy)-hexyl]-phenoxy}-butyric Acid] | 1.22
CS(=O)(=O)c1cc(OCCCCCCc2cccc(OCCCC(=O)O)c2CCC(=O)O)cc(-c2ccc(F)cc2)c1 [Example 8, 4-{2-(2-Carboxy-ethyl)-3-[6-(4′-fluoro-5-methanesulfonyl-biphenyl-3-yloxy)-hexyl]-phenoxy}-butyric Acid] | 0.38
Cc1ccc(-c2cc(OCCCCCCc3cccc(OCCCC(=O)O)c3CCC(=O)O)cc(S(C)(=O)=O)c2)cc1F [Example 11, 4-{2-(2-Carboxy-ethyl)-3-[6-(3′-fluoro-5-methanesulfonyl-4′-methyl-biphenyl-3-yloxy)-hexyl]-phenoxy}-butyric Acid] | 0.32
CS(=O)(=O)c1cc(OCCCCCCc2cccc(OCCCC(=O)O)c2CCC(=O)O)cc(-c2ccsc2)c1 [Example 12, 4-{2-(2-Carboxy-ethyl)-3-[6-(3-methanesulfonyl-5-thiophen-3-yl-phenoxy)-hexyl]-phenoxy}-butyric Acid] | 0.44
CCc1ccc(-c2cc(OCCCCCCc3cccc(OCCCC(=O)O)c3CCC(=O)O)cc(S(C)(=O)=O)c2)cc1 [Example 13, 4-{2-(2-Carboxy-ethyl)-3-[6-(4′-ethyl-5-methanesulfonyl-biphenyl-3-yloxy)-hexyl]-phenoxy}-butyric Acid] | 0.91
CS(=O)(=O)c1cc(OCCCCCCc2cccc(OCCCC(=O)O)c2CCC(=O)O)cc(-c2cscn2)c1 [Example 21, 4-{2-(2-Carboxy-ethyl)-3-[6-(3-methanesulfonyl-5-thiazol-4-yl-phenoxy)-hexyl]-phenoxy}-butyric Acid] | 261
CS(=O)(=O)c1cc(OCCCCCCc2cccc(OCCCC(=O)O)c2CCC(=O)O)cc(Oc2ccc(Cl)cc2)c1 [Example 23, 4-(2-(2-Carboxy-ethyl)-3-{6-[3-(4-chloro-phenoxy)-5-methanesulfonyl-phenoxy]-hexyl}-phenoxy)-butyric Acid] | 361
CS(=O)(=O)c1cc(Nc2ccccc2)cc(OCCCCCCc2cccc(OCCCC(=O)O)c2CCC(=O)O)c1 [Example 26, 4-{2-(2-Carboxy-ethyl)-3-[6-(3-methanesulfonyl-5-phenylamino-phenoxy)-hexyl]-phenoxy}-butyric Acid] | 47.1
CS(=O)(=O)c1cc(OCCCCCCc2cccc(OCCCC(=O)O)c2CCC(=O)O)cc(-c2cccc(F)c2)c1 [Example 27, 4-{2-(2-Carboxy-ethyl)-3-[6-(3′-fluoro-5-methanesulfonyl-biphenyl-3-yloxy)-hexyl]-phenoxy}-butyric Acid] | 0.9

The remaining lines, values ahead:

IC50 [nM] | SMILES
0.38 | CS(=O)(=O)c1cc(OCCCCCCc2cccc(OCCCC(=O)O)c2CCC(=O)O)cc(-c2ccccc2)c1 [Example 28, 4-{2-(2-Carboxy-ethyl)-3-[6-(5-methanesulfonyl-biphenyl-3-yloxy)-hexyl]-phenoxy}-butyric Acid]
0.12 | COc1ccc(-c2cc(OCCCCCCc3cccc(OCCCC(=O)O)c3CCC(=O)O)cc(S(C)(=O)=O)c2)cc1 [Example 29, 4-{2-(2-Carboxy-ethyl)-3-[6-(5-methanesulfonyl-4′-methoxy-biphenyl-3-yloxy)-hexyl]-phenoxy}-butyric Acid]
0.09 | CS(=O)(=O)c1cc(OCCCCCCc2cccc(OCCCC(=O)O)c2CCC(=O)O)cc(-c2ccc3c(c2)OCO3)c1 [Example 40, 4-[3-[6-(3-Benzo[1,3]dioxol-5-yl-5-methanesulfonyl-phenoxy)-hexyl]-2-(2-carboxy-ethyl)-phenoxy]-butyric Acid]
0.47 | CS(=O)(=O)c1cc(OCCCCCCc2cccc(OCCCC(=O)O)c2CCC(=O)O)cc(-c2ccc3c(c2)OCCO3)c1 [Example 41, 4-(2-(2-Carboxy-ethyl)-3-{6-[3-(2,3-dihydro-benzo[1,4]dioxin-6-yl)-5-methanesulfonyl-phenoxy]-hexyl}-phenoxy)-butyric Acid]
0.2 | CS(=O)(=O)c1cc(OCCCCCCc2cccc(OCCCC(=O)O)c2CCC(=O)O)cc(-c2ccc3scnc3c2)c1 [Example 45, 4-[3-[6-(3-Benzothiazol-5-yl-5-methanesulfonyl-phenoxy)-hexyl]-2-(2-carboxy-ethyl)-phenoxy]-butyric Acid]
0.24 | CS(=O)(=O)c1cc(OCCCCCCc2cccc(OCCCC(=O)O)c2CCC(=O)O)cc(-c2ccc3c(c2)OC(F)(F)O3)c1 [Example 46, 4-(2-(2-Carboxy-ethyl)-3-{6-[3-(2,2-difluoro-benzo[1,3]dioxol-5-yl)-5-methanesulfonyl-phenoxy]-hexyl}-phenoxy)-butyric Acid]
0.27 | CCS(=O)(=O)c1cc(OCCCCCCc2cccc(OCCCC(=O)O)c2CCC(=O)O)cc(-c2ccc3c(c2)OCO3)c1 [Example 47, 4-[3-[6-(3-Benzo[1,3]dioxol-5-yl-5-ethanesulfonyl-phenoxy)-hexyl]-2-(2-carboxy-ethyl)-phenoxy]-butyric Acid]
2.8 | CCS(=O)(=O)c1cc(OCCCCCCc2cccc(OCCCC(=O)O)c2CCC(=O)O)cc(-c2ccc(F)cc2)c1 [Example 51, 4-[2-(2-Carboxy-ethyl)-3-[6-(5-ethanesulfonyl-4′-fluoro-biphenyl-3-yloxy)-hexyl]-phenoxy]-butyric Acid]
1.04 | CCS(=O)(=O)c1cc(OCCCCCCc2cccc(OCCCC(=O)O)c2CCC(=O)O)cc(-c2ccsc2)c1 [Example 52, 4-[2-(2-Carboxy-ethyl)-3-[6-(3-ethanesulfonyl-5-thiophen-3-yl-phenoxy)-hexyl]-phenoxy]-butyric Acid]
63.8 | CCCS(=O)(=O)c1cc(OCCCCCCc2cccc(OCCCC(=O)O)c2CCC(=O)O)cc(-c2ccc(F)cc2)c1 [Example 55, 4-[2-(2-Carboxy-ethyl)-3-[6-(5-(propane-1-sulfonyl)-4′-fluoro-biphenyl-3-yloxy)-hexyl]-phenoxy]-butyric Acid]
15.3 | CC(C)S(=O)(=O)c1cc(OCCCCCCc2cccc(OCCCC(=O)O)c2CCC(=O)O)cc(-c2ccc(F)cc2)c1 [Example 60, 4-[2-(2-Carboxy-ethyl)-3-[6-(5-(propane-2-sulfonyl)-4′-fluoro-biphenyl-3-yloxy)-hexyl]-phenoxy]-butyric Acid]
